# Literature values in patent US6476058B2 (Isotechnika, Inc., priority 1998, dated 2002).
# Experiments:
# [1] = test system: patients with chronic stable angina
# [2] = in vivo
# human = conditions: racemic mixture administered to a human
structure (smiles),measurement,setting,value
"CCOC(=O)C1=C(COCCN)NC(C)=C(C(=O)OC)C1c1ccccc1Cl (racemic) [amlodipine, (R.S.) 3-ethyl-5-1-methyl-2-(2-aminoethoxymethyl)-4-(2-chlorophenyl)-1,4-dihydro-6-methyl-3,5-pyridinedicarboxylate]",reduction in blood pressures,[1],4/1
same,metabolites excreted in the urine,in vivo,60%
same,parent compound excreted in the urine,in vivo,10%
same,bioavailability in the presence of food,"oral, food",not altered
same,influence of renal impairment on pharmacokinetics,renal impairment,not significantly influenced
same,serum calcium concentration,[2],not affected
same,adverse effects,human,"headache and edema, dizziness, flushing, palpitation, fatigue, nausea, abdominal pain and somnolence"
